Measured values from ChEMBL document CHEMBL1201862, “PubChem BioAssay data set” (2004).
Activity calls are given as the source filed them.

Key:
Escherichia coli [1] = experiment: microbe, parasite or virus in culture
Escherichia coli [2] = experiment: microbe, parasite or virus in culture; remark: listed apart in the source
[3] = biological target: T1, Corticotropin-releasing factor receptor 2/Corticotropin-releasing factor-binding protein (Homo sapiens, UniProt P24387+Q13324); experiment: activators of CRF receptor 2 with binding protein – uHTS hits, confirmation (AID 602473); type: functional; settings: read-out: EC50_Mean
T1 sequence (Q13324 whole entry): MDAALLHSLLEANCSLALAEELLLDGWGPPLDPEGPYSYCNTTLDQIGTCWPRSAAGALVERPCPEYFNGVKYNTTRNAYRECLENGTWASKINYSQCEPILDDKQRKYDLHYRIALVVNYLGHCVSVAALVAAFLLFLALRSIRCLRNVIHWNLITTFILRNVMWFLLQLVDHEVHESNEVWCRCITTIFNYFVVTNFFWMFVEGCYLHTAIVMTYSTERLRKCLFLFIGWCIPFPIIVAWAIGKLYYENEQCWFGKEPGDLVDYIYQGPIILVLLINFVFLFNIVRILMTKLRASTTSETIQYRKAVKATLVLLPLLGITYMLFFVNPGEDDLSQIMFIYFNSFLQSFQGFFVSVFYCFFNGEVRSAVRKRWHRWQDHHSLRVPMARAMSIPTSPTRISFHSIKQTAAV
T1 sequence (P24387 whole entry): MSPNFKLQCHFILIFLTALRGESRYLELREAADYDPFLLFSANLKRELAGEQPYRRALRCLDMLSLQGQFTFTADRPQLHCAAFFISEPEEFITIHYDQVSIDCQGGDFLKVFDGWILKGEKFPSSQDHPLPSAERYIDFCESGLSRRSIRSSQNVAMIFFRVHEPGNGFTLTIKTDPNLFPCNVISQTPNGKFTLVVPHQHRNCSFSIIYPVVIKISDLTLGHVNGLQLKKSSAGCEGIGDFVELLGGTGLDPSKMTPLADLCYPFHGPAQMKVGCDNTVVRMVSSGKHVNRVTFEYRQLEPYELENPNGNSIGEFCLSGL

[4] = biological target: T2, Short transient receptor potential channel 4 (Mus musculus, UniProt Q9QUQ5); experiment: mouse TRPC4 channel activators, dose response, cell-based, HEK293 TRPC4/mu-opioid, Fluo-4 calcium (AID 434937); type: functional
T2 sequence (Q9QUQ5 whole entry): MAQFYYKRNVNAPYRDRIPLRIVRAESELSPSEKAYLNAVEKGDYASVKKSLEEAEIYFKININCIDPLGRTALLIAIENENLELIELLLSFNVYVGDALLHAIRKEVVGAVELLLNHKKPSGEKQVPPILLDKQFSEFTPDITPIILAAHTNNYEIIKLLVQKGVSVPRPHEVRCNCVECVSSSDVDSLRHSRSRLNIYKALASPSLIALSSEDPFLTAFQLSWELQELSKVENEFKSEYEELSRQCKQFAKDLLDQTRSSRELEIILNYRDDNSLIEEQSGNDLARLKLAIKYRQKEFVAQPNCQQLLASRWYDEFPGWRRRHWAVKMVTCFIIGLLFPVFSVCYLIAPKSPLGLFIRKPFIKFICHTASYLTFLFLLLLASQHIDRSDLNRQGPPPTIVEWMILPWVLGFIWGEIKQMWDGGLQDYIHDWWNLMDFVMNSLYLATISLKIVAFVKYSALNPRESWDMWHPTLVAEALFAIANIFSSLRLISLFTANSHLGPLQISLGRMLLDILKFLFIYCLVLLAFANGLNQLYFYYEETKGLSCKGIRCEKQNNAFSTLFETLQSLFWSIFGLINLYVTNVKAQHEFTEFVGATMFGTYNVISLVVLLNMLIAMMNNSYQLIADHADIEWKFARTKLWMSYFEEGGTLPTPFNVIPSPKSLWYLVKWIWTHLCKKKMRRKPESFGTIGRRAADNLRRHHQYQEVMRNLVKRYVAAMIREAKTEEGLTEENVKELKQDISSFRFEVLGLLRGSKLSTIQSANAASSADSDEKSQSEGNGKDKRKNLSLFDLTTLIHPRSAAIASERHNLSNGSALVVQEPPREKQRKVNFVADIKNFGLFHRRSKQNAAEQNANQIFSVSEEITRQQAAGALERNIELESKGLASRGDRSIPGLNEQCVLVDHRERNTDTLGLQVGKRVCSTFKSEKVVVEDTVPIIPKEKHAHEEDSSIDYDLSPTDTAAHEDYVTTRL

Fatty acid synthase [5] = biological target: T3, Fatty acid synthase (Homo sapiens, UniProt P49327); experiment: FAS thioesterase domain inhibitors, dose response, biochemical, endpoint fluorescence intensity, uHTS hits (AID 624327); type: functional;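 also: fluorescence from hydrolysis of an O-methyl fluorescein acyl ester substrate by the enzyme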
T3 sequence (P49327 whole entry, the tested form may be a part): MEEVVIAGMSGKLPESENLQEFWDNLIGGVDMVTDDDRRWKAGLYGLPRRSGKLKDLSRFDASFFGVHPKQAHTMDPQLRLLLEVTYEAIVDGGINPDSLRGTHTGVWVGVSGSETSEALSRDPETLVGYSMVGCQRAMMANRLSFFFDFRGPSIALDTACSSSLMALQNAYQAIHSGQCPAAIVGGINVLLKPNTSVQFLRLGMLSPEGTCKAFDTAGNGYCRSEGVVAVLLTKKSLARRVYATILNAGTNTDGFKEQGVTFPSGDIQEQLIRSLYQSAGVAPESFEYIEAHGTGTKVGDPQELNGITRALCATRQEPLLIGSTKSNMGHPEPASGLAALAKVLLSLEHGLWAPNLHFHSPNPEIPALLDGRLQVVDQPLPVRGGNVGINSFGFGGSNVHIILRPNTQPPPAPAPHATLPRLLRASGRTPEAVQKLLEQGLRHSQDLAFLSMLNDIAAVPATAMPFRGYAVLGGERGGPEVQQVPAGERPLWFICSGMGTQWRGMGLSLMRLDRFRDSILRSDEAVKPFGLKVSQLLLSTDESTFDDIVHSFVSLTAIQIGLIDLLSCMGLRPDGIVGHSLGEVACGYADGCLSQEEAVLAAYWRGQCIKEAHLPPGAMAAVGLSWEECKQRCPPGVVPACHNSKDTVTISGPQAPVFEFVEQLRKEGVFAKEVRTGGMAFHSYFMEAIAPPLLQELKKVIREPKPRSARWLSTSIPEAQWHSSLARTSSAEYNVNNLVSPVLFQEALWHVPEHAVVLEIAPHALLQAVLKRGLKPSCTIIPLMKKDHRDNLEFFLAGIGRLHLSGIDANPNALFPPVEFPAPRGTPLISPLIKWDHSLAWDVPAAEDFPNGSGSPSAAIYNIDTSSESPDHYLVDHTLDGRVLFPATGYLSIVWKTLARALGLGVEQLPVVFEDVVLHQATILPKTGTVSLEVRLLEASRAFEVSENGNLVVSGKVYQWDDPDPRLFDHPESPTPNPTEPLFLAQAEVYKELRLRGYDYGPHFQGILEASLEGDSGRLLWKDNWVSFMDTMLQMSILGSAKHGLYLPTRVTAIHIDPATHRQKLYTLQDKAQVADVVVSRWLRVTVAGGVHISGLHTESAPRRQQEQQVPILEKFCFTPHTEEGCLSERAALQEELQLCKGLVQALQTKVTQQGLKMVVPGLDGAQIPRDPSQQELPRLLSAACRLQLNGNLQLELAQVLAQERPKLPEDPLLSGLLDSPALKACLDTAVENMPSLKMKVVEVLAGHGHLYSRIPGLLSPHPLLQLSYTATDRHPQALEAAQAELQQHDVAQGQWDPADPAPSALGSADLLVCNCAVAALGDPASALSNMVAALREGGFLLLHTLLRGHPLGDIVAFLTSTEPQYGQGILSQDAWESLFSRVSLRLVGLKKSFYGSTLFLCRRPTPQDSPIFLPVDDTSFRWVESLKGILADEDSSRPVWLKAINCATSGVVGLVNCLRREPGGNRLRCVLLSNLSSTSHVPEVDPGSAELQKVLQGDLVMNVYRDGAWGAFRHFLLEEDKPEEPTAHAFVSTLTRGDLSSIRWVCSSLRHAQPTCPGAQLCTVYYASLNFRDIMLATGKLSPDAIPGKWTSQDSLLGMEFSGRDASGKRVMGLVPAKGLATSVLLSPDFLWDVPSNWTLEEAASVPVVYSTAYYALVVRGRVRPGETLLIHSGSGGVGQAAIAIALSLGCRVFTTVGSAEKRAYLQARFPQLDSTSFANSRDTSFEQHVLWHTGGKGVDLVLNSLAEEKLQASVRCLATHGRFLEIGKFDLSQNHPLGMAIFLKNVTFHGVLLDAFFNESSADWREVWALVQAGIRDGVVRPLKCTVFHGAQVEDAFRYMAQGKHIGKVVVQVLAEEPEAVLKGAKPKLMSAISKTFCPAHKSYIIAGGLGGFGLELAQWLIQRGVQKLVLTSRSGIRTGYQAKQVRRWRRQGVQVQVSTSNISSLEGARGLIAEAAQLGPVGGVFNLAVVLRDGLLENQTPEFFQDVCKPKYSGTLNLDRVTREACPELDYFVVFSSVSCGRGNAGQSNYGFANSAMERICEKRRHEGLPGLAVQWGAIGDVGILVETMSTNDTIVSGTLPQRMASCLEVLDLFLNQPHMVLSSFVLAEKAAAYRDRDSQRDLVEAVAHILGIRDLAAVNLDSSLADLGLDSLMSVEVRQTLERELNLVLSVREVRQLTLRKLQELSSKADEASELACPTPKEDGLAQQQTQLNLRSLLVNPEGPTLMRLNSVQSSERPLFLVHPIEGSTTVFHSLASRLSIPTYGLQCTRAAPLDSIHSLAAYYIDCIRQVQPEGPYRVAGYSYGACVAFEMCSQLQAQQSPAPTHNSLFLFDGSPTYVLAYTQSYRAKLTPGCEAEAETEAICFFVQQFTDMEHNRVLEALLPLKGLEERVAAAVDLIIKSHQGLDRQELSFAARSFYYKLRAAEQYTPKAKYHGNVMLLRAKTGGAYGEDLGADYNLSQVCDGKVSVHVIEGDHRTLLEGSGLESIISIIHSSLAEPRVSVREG

Large T antigen = Large T antigen (Simian virus 40, UniProt P03070); type: functional, Betapolyomavirus macacae;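 also: Confirmatory-stage PubChem screen for compounds that inhibit SV40 T antigen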
Chain of Large T antigen (P03070 whole entry, the tested form may be a part): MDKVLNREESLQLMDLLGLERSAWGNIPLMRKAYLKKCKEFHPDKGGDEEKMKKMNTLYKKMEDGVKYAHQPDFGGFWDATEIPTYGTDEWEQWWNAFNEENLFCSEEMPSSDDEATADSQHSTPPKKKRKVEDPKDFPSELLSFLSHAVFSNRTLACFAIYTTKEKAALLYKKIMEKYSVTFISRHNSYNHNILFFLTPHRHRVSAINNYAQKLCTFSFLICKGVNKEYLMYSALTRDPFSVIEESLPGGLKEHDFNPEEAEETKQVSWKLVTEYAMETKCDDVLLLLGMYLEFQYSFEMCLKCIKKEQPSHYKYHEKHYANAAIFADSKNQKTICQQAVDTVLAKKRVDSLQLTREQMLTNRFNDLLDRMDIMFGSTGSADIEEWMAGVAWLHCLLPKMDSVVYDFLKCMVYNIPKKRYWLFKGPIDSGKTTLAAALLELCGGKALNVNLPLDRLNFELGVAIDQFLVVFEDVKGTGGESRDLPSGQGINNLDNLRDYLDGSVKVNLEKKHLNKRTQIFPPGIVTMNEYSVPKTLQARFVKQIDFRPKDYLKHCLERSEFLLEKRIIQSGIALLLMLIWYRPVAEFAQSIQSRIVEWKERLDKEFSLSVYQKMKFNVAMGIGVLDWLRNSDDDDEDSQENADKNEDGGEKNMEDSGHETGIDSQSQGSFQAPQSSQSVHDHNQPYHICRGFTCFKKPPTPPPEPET

Fatty acid synthase [6] = biological target: T3, Fatty acid synthase; experiment: FAS thioesterase domain inhibitors, dose response, biochemical, kinetic fluorescence intensity (AID 624326); type: functional;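 also: rate of fluorescence rise from hydrolysis of a fluorogenic O-methyl fluorescein ester substrate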
Genome polyprotein = Genome polyprotein (dengue virus type 2, UniProt P29990); experiment: Dengue-2 NS5 methyltransferase inhibitors, primary screen, biochemical, confirmation dose response (AID 588689); type: functional
[7] = biological target: Induced myeloid leukemia cell differentiation protein Mcl-1 (Homo sapiens, UniProt Q07820); type: functional
Chain of Induced myeloid leukemia cell differentiation protein Mcl-1 (Q07820 whole entry): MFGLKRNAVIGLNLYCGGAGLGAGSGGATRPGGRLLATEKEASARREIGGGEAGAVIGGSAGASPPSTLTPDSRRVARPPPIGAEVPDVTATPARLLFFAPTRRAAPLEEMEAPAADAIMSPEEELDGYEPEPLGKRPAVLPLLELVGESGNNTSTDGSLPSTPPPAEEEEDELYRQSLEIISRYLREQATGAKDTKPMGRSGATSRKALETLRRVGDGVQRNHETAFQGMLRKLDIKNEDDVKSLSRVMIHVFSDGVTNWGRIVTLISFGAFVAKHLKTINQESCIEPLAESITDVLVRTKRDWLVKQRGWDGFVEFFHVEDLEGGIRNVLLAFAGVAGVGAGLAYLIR

[8] = cytotoxicity in MIN6 insulinoma cells, dose response, cytotoxicity control, cell-based, mouse insulinoma (AID 2122); type: functional;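 also: confirmatory high-throughput counterscreen run to flag cytotoxic compounds; mouse MIN-6 beta cells carrying an insulin promoter eGFP reporter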
[9] = insulin promoter down-regulators in MIN6 cells, imaging, high-content screening, mouse beta cells (AID 1628); type: functional
Cytochrome P450 2C9 = Cytochrome P450 2C9 (Homo sapiens, UniProt P11712)
Chain of Cytochrome P450 2C9 (P11712 whole entry): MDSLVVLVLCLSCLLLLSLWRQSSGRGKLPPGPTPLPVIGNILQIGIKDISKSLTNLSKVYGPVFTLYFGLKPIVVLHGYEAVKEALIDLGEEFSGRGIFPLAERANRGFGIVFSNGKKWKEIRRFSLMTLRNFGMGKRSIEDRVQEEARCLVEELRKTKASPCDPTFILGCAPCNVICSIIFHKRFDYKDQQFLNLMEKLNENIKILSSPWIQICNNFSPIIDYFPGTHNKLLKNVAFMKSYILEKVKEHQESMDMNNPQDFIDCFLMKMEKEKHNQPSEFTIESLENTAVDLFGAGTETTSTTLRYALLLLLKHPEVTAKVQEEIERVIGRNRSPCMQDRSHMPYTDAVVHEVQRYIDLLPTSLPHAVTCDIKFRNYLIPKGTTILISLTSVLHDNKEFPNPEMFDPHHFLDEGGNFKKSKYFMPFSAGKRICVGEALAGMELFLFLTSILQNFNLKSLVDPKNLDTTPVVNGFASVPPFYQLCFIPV

Cytochrome P450 1A2 = biological target: T4, Cytochrome P450 1A2 (Homo sapiens, UniProt P05177);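 also: PubChem cytochrome P450 panel assay, CYP1A2 panel member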
T4 sequence (P05177 whole entry): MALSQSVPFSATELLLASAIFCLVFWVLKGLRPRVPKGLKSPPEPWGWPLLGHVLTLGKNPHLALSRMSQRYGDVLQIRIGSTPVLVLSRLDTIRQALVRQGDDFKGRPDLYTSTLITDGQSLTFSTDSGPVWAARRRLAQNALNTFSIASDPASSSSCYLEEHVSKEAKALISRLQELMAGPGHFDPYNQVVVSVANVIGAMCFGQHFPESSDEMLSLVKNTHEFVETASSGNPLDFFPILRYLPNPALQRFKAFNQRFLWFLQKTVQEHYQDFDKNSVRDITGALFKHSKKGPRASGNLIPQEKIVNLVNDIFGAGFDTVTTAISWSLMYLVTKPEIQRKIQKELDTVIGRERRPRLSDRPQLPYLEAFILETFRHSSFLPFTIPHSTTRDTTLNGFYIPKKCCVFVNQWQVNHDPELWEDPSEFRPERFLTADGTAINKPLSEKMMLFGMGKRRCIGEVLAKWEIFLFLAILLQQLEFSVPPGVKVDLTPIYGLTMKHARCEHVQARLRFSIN

Cytochrome P450 3A4 = Cytochrome P450 3A4 (Homo sapiens, UniProt P08684);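 also: CYP3A4 tested as one member of a cytochrome P450 panel screen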
Chain of Cytochrome P450 3A4 (P08684 whole entry): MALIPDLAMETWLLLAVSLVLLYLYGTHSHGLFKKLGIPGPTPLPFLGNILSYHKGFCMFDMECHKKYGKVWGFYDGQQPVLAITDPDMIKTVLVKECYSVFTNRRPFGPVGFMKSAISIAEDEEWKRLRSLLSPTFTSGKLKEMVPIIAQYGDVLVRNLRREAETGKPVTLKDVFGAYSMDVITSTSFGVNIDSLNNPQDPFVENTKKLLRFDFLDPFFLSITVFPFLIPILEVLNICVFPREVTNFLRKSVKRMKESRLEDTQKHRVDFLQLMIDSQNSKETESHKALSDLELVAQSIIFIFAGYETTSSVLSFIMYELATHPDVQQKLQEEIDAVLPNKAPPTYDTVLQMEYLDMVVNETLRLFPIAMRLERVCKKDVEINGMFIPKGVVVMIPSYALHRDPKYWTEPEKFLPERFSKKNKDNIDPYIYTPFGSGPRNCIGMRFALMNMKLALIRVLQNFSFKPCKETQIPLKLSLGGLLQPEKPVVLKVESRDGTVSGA

Cytochrome P450 2C19 = Cytochrome P450 2C19 (Homo sapiens, UniProt P33261); experiment: Cytochrome panel assay with activity outcomes. Panel member name: p450-cyp2c19 Compounds with AC50 equal or less than 10 uM are considered active; type: functional
Chain of Cytochrome P450 2C19 (P33261 whole entry): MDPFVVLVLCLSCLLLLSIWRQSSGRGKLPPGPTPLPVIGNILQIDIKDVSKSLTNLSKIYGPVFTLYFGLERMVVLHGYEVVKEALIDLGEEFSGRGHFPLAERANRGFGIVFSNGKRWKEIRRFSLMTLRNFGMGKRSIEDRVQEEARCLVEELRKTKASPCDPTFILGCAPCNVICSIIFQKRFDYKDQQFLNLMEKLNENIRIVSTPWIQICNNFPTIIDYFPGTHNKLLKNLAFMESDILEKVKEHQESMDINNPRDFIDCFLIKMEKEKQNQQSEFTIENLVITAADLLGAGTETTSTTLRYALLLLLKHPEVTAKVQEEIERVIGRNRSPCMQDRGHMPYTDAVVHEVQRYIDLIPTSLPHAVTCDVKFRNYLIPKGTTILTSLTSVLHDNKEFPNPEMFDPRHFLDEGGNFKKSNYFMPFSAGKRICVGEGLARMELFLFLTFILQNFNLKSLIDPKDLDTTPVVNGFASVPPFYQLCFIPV

[10] = NIH-3T3 fibroblast cytotoxicity, dose response, cytotoxicity control, cell-based, fluorescence, Alamar Blue, secondary assay (AID 2327); type: functional;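 also: NIH-3T3 mouse fibroblasts cultured with fluconazole at 8 µg/mL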
[11] = biological target: T5, Heat shock factor protein 1 (Mus musculus, UniProt P38532); experiment: HSF1 potentiators in luciferase reporter cells, confirmation, cell-based, NIH3T3, luminescence, dose retest (AID 435004); type: functional;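 also: stress induced by proteasome inhibitor MG132 added 30 min after compound; luciferase reporter driven by HSF1 response element in NIH3T3 cells; actives raise luminescence as potentiators of the MG132 stress response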
T5 sequence (P38532 whole entry): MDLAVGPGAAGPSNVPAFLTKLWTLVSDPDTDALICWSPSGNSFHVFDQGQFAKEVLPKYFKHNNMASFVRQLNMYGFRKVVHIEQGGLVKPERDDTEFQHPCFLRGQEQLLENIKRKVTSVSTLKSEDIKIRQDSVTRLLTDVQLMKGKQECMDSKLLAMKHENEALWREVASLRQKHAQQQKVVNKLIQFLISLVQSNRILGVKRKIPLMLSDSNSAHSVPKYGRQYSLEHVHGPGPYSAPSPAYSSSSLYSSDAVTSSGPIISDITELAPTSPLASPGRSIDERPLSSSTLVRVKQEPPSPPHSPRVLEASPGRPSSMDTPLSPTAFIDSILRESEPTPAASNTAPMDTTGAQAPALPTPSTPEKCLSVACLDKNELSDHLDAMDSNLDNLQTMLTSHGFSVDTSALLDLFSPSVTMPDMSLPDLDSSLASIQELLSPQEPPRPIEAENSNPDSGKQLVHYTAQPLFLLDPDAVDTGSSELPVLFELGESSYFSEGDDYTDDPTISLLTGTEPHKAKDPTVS

SMILES: COc1ccc(S(=O)(=O)N2CCCC2)c(Cl)c1Cl
- AC50 (Escherichia coli [1]): 71.3 µM (active)
- AC50 (Escherichia coli [2]): 37.7 µM (active)

SMILES: CCN1C(=O)c2cccc3c(S(=O)(=O)Nc4ccccc4OC)ccc1c23
- EC50 [3]: 7.94 µM (active)
- EC50 [4]: 5.96 µM (active)

SMILES: Cc1nc2ccc(NC(=O)c3cc([N+](=O)[O-])cc([N+](=O)[O-])c3Cl)cc2s1
- IC50 (Fatty acid synthase [5]): 2.23 µM (active)
- IC50 (Large T antigen): 59.9 µM (active)
- IC50 (Fatty acid synthase [6]): 2.54 µM (active)
- IC50 (Genome polyprotein): 59.6 µM (active)
- IC50 [7]: 5.15 µM (active)

SMILES: Clc1ccc(CN2CCN(c3ncnc4scc(-c5cccs5)c34)CC2)cc1
- IC50 [8]: 2.12 µM (active)
- IC50 [9]: 2.39 µM (active)

SMILES: C[C@H]1c2cccc(O)c2C(=O)C2=C(O)C3(O)C(O)=C(C(N)=O)C(=O)[C@@H](N(C)C)[C@@H]3[C@@H](O)[C@@H]21 (some centres undefined)
- AC50 (Escherichia coli [1]): 30 µM (active)
- AC50 (Escherichia coli [2]): 1.13 µM (active)

SMILES: Cn1cccc1C(=O)N1CCC2(CC1)CN(c1cccc(-c3ccccc3)c1)C2
- AC50 (Cytochrome P450 2C9): inconclusive
- AC50 (Cytochrome P450 1A2): 25.1 µM (inconclusive)
- AC50 (Cytochrome P450 3A4): inconclusive
- AC50 (Cytochrome P450 2C19; read-out: AC50): 39.8 µM (inconclusive)

SMILES: Cc1cc(C)n(-c2ccc(NC(=O)C3CCN(Cc4ccccn4)CC3)cc2)n1
- AC50 (Escherichia coli [1]): 39.4 µM (active)
- AC50 (Escherichia coli [2]): 51.6 µM (active)

SMILES: O=C(OCCCN1CCCCC1)c1ccc(O)cc1
- AC50 (Cytochrome P450 2C9): inconclusive
- AC50 (Cytochrome P450 2C19): inconclusive

SMILES: C[n+]1c(-c2ccccc2)cc(CCCCc2cc(-c3ccccc3)[n+](C)c(-c3ccccc3)c2)cc1-c1ccccc1.[O-][Cl+3]([O-])([O-])[O-].[O-][Cl+3]([O-])([O-])[O-]
- IC50 [8]: 4.7 µM (active)
- EC50 [10]: > 160 µM (inactive)
- IC50 [9]: 2.72 µM (active)

SMILES: Cc1ccc([N+](=O)[O-])cc1/N=N/c1c(-c2ccc([N+](=O)[O-])cc2)[nH]n(C(N)=S)c1=O
- EC50 [11]: > 260 µM (inactive)
- IC50 [7]: 1.18 µM (active)

SMILES: O=C(N/N=C/c1cccc(C(F)(F)F)c1)C1CCN(c2ncc(C(F)(F)F)cc2Cl)CC1
- AC50 (Cytochrome P450 2C9): inconclusive
- AC50 (Cytochrome P450 2C19): inconclusive

SMILES: CO[C@H]1/C=C/O[C@@]2(C)Oc3c(C)c(O)c4c(O)c(c(/C=N/N5CCN(C)CC5)c(O)c4c3C2=O)NC(=O)/C(C)=C\C=C\[C@H](C)[C@H](O)[C@@H](C)[C@@H](O)[C@@H](C)[C@H](OC(C)=O)[C@@H]1C [RIFAMPIN]
- AC50 (Escherichia coli [2]): 32.3 µM (active)
